Experiments:
human H3 receptors [1] = molecular target: T1, human H3 receptors (Homo sapiens (Human), UniProt Q9Y5N1); assay: Potency assessment: blockade of (R)-alpha-methylhistamine-mediated cAMP production (LANCE Ultra cAMP kit); format: cell-based; details: CHO cells expressing human H3 receptors
Method: The potency of compounds of the invention as H3 receptor antagonists can be assessed by measuring the blockade of (R)-alpha-methylhistamine-mediated cAMP production utilizing a LANCE Ultra cAMP kit (PE #TRF0263) in CHO cells expressing human H3 receptors (GenBank: BC096840; Strausberg R L et al, Proc. Natl. Acad. Sci. U.S.A. 99(26), 16899-16903; 2002).
2. Preparation of assay plate: Different concentrations of the compounds of the invention (0.01-1000 nM), H3 positive controls and cAMP calibration standards; […] Forskolin (CALBIOCHEM #344270); 5 μM (R)-alpha-methylhistamine (H3 receptor agonist); 1% DMSO (SIGMA #D2650); total volume: 95 nl.
3. Preparation of the cell solution: Collect cells with stimulation buffer, final density: 100,000 cells/ml.
4. Reaction: (a) transfer 10 μl of cell solution to assay plate, (b) centrifuge at 600 rpm for 3 min and incubate 50 min at room temperature, (c) add 5 μL 4× Eu-cAMP tracer solution (60 μl Eu-cAMP tracer stock solution+2.94 ml cAMP detection buffer) and 5 μL 4× ULight™-anti-cAMP solution (20 μl […]+2.98 ml cAMP detection buffer) to assay plate.
5. Reading plate on EnVision: flash energy: 100%; excitation filter: 111 UV2 320; emission filter: 203 (Eu 615) and 205 (APC 665); number of laser flashes: 20; window: 100 μs; laser mirror module: 445 or 446; laser cycle: 16,600 μs.
6. Data analysis by GraphPad Prism: log (compound concentration) vs. response; variable slope.

human H3 receptors [2] = molecular target: T1, human H3 receptors; assay: Affinity assessment: displacement of [3H]-N-α-Methylhistamine binding to membranes; details: membranes containing human H3 receptors, radioligand [3H]-N-α-Methylhistamine
Method: The affinity of compounds of the invention to the H3 receptor can be assessed by measuring displacement of binding of the radioligand [3H]-N-α-Methylhistamine (PerkinElmer, #NET1027250UC) to membranes containing human H3 receptors (PerkinElmer, #ES-392-M400UA; GenBank: NM_007232.2; Hill S J et al, International Union of Pharmacology XIII. Classification of histamine receptors, Pharmacol Rev, 49(3), 253-278, 1997).
2. Compound serial dilution: Dilution was performed by BioTek Precision on compound dilution plate. Compound concentrations start at 5 or 10 μM, 10 point dose titrations with 3- or 5-fold serial dilutions.
3. Preparation of 2× membrane solution (25 ml): 1.25 ml human Histamine H3 receptor stock, 23.75 ml assay buffer.
4. Preparation of 2× solution of [3H]-N-α-methylhistamine (25 ml): 4.27 μl [3H]-N-α-methylhistamine stock, 25 ml assay buffer.
5. Assemble binding reaction: (a) transfer 1 μl of compound solution, 1 μl 100% DMSO and 1 μl 1 M (R)(−)-α-Methylhistamine (Sigma, #H128) to the reaction plate at room temperature, (b) transfer 50 μl of 2× protein solution to reaction plate, (c) transfer 49 μl of 2× radioligand solution to reaction plate (Corning® 96 well EIA/RIA plate; Sigma, #CLS3797).
6. Cover the reaction plate with a TopSeal™-A film (Perkin Elmer, #6005185) and incubate at 28° C. for 120 min. Equilibrate Zeba Spin Desalting Plates (Thermo Scientific, #89808) to room temperature for 120 min.
7. Remove the sealing material from the bottom of the filtration plate. Place the plate on a wash plate. Centrifuge at 1000 g for 2 min to remove the storage buffer at room temperature.
8. Transfer 70 μl binding reaction from reaction plate into filtration plates. Place the filtration plates on top of collection plate. Centrifuge the plate assembly at 1000 g for 2 min to collect the protein with bound radioligand. Add 200 μl of Microscint-40 (PerkinElmer, #6013641-1L) to each well of the collection plate. Cover the plates with TopSeal™-A film.
9. Read the plates on Wallac Microbeta Trilux 2450, Instrument settings: counting mode: CPM, counting time: 2 min.
10. Data analysis: GraphPad Prism: log (compound concentration) vs. response; variable slope. The Ki is calculated based on Chang and Prusoff: Ki=IC50/{1+([radioligand]/Kd)}

tele-methylhistamine = assay: Effects on brain tele-methylhistamine levels; format: in vivo, rat; details: male Sprague-Dawley rats, oral, frontal cortex
Method: Compounds of the invention were dissolved in 20% 2-hydroxyl-beta-cyclodextran (HBC) and then sonicated briefly until there is little or no suspension in the solution. Animals (male Sprague-Dawley rats at the age of 8 weeks) were orally dosed with test compounds I hour or other longer time points before they were sacrificed using CO2.
A cardiac puncture was performed to collect blood sample from the cardiac cavity. The collected blood was immediately mixed with EDTA-K2 20 μl/ml to avoid blood clotting. The blood samples in tubes were then centrifuged (15 mim, 6000 rpm) and the plasma transferred to new tubes and then temporarily kept in dry ice until they were stored in a −70° C. freezer.
CSF collection: CSF samples were taken from the foramen magnum of the animal (using a #0.5 intravenous needle), and the CSF sample were kept in dry ice.
The rat brain were taken out of the skull and rinsed with ice-cold saline first. The frontal cortex was separated from the rest of the brain on top of a petri dish with ice underneath. The wet weight of the frontal cortex was weighed and recorded immediately. The frontal cortex sample was then kept in dry ice until they are transferred to a −70° C. freezer.
Bioanalytical Methods for Tele-Methyl Histamine and Compounds:
• Instrument: Agilent 6410, triple quadrupole mass spectrometer • Matrix: rat plasma, frontal cortex homogenate and cerebrospinal fluid (CSF) • Analyte: H3 compounds. • Internal standard: Dexamethasone HPLC Conditions Mobile Phase A: H2O—0.1% NH3.H2O: • Mobile phase B: MeOH-0.1% NH3.H2O • Column: Ultimate XB-C18 (2.1×50 mm, 5 μm) • Flow rate: 0.45 mL/min, temperature: 40° C. MS Conditions: • ESI: positive ion • MRM detection • Dexamethasone: [M+H]+m/z 393.3→373.2; CE: 4; Fragmentor: 110 Sample Preparation: Frontal Cortex:
the brain sample was homogenized for 2 min with 3 volumes (v/w) of homogenizing solution (EtOH:PBS=85:15), and then centrifuged at 12,000 rpm for 5 min. […]

T1 sequence (Q9Y5N1 whole entry): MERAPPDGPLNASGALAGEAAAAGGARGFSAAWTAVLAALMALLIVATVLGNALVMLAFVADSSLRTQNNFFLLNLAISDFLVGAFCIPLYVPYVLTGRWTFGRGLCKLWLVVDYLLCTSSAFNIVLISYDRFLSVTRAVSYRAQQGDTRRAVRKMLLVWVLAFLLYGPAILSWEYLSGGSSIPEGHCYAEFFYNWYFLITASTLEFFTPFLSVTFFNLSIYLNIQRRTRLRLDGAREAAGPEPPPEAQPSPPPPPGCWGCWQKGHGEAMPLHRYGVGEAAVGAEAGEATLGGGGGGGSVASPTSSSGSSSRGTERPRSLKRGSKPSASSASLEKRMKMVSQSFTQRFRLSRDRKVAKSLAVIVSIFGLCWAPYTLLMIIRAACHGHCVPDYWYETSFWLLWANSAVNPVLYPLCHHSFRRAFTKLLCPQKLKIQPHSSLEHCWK

Compound	Ki (human H3 receptors [1])	Ki (human H3 receptors [2])	% change in tele-methylhistamine brain levels for 10 mg/kg @ 1 h (tele-methylhistamine)
CC(C)N1CCN(C(=O)OC2CCN(c3ccc(=O)n(C)n3)CC2)CC1 [Example 1.2, 1-(1-methyl-6-oxo-1,6-dihydropyridazin-3-yl)piperidin-4-yl 4-isopropylpiperazine-1-carboxylate]	2.4 nM	31 nM	138%
O=C(OC1CCN(c2ccc(=O)[nH]n2)CC1)N1CCN(C2CCC2)CC1 [Example 1.1, 1-(6-oxo-1,6-dihydropyridazin-3-yl)piperidin-4-yl 4-cyclobutylpiperazine-1-carboxylate]	1.3 nM	26 nM	72%
CC(C)N1CCN(C(=O)OC2CCN(c3ccc(=O)[nH]n3)CC2)CC1 [Example 1.3, 1-(6-oxo-1,6-dihydropyridazin-3-yl)piperidin-4-yl 4-isopropylpiperazine-1-carboxylate]	1.2 nM	10 nM	115%

From US9034874B2, “Carbamate/urea derivatives” (NOVARTIS AG, priority 2012, dated 2015)
